Results on seven compounds are retold here after patent US12509424B2, “Compound and composition as PDGF receptor kinase inhibitor” (NIPPON SHINYAKU CO., LTD., priority 2019, dated 2025).

Like-named read-outs stand apart in the source and are kept apart here.

The target of assay [1] is TEL-KIT fusion gene transfected cells (Ba/F3) (Homo sapiens, UniProt P10721). Kind of assay: Suppression of proliferation of TEL-KIT fusion gene transfected Ba/F3 cells.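 Note: viable cells quantified via formazan from tetrazolium reduction, inhibition scaled with 0.1% DMSO control as 0% and medium-only blank as 100%, IC50 from two-parameter logistic fit.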 To be noted: read-out: KIT/BaF3 proliferation inhibition (IC50); TEL-KIT expressing Ba/F3 cells, 72 hours, final concentration 0.1 to 10,000 nM.
Sequence of TEL-KIT fusion gene transfected cells (Ba/F3) (Homo sapiens, UniProt P10721) (P10721 26-976 limits assumed, change not shown): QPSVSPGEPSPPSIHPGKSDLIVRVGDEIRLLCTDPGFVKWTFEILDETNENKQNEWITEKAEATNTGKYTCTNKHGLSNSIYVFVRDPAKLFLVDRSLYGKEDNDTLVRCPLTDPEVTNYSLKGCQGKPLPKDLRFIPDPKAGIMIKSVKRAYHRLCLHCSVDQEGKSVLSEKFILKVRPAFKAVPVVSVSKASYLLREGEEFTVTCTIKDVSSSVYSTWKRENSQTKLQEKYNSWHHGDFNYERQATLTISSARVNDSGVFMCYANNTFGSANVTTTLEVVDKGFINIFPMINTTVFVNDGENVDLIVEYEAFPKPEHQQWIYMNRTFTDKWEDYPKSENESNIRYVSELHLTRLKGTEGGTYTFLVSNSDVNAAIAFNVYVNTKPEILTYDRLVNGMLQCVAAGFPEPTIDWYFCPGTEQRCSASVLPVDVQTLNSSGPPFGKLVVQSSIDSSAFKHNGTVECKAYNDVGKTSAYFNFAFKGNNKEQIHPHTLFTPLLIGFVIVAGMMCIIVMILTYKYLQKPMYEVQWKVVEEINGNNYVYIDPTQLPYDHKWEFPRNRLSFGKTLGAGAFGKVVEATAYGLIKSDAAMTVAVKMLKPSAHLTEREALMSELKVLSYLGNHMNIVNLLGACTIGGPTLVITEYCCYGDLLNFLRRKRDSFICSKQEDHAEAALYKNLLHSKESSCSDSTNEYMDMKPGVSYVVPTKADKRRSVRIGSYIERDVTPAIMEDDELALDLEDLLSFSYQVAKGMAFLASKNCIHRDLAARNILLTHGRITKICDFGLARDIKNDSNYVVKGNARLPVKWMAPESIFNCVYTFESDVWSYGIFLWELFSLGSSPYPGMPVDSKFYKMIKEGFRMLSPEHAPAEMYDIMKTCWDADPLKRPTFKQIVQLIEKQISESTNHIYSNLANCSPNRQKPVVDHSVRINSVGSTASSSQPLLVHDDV
A further assay has as its target PDGFR-β (Homo sapiens (Human), UniProt P09619). Kind of assay: PDGFR-β tyrosine kinase inhibitory action (HTRF KinEASE-TK). Format: biochemical. Particulars: PDGFR-β enzyme 1 ng/μL, 30° C. for 30 minutes; read-out: PDGF-β IC50. The method, boiled down:
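Recombinant PDGFR-β at 1 ng/μL final with TK substrate-3-biotin in a substrate solution containing 0.6 μM ATP; buffer 50 mM HEPES pH 7.0, 5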
In general terms: TR-FRET usually uses a lanthanide donor and a delayed reading to cut background.

Assay [2] concerns pulmonary arterial smooth muscle cells. The experiment in a line: Suppression of proliferation of pulmonary arterial smooth muscle cells (PDGF-BB stimulation, BrdU). Format: cell-based. Particulars: read-out: Human normal PASMC proliferation suppression (PDGF stimulation_IC50). The method, boiled down:
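Test compound (final 3 to 10,000 nM) was added together with BrdU and PDGF-BB (final 10 ng/mL) to healthy human pulmonary artery smooth muscle cells held a day in 0.1% FBS. Proliferation was read after 1 day as anti-BrdU-detected BrdU incorporation.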

Assay [3] has as its system TEL-PDGFRβ fusion gene transfected cells (Ba/F3). Kind of assay: Suppression of proliferation of TEL-PDGFRβ fusion gene transfected Ba/F3 cells. The class given is cell-based, human. To be noted: TEL-PDGFRβ expressing Ba/F3 cells, 72 hours, final concentration 0.1 to 10,000 nM; read-out: PDGFR β/BaF3 proliferation inhibition (IC50). From the text: (§1) 2. Preparation of Test Substance
(§2) 4. Analysis of Measurement Results

Assay [4] concerns the target TEL-PDGFRβ fusion gene transfected cells (Ba/F3) (Homo sapiens, UniProt P09619). The assay is described as above. Particulars: TEL-PDGFRβ expressing Ba/F3 cells, 72 hours, final concentration 0.1 to 10,000 nM; read-out: PDGFR β/BaF3 proliferation inhibition (IC50). Format: cell-based.
From the text: as §1, §2

The target of assay [5] is TEL-KIT fusion gene transfected cells (Ba/F3). Kind of assay: Suppression of proliferation of TEL-KIT fusion gene transfected Ba/F3 cells.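 Note: viable cells quantified via formazan from tetrazolium reduction, inhibition scaled with 0.1% DMSO control as 0% and medium-only blank as 100%, IC50 from two-parameter logistic fit.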 To be noted: read-out: KIT/BaF3 proliferation inhibition (IC50); TEL-KIT expressing Ba/F3 cells, 72 hours, final concentration 0.1 to 10,000 nM.
Sequence of TEL-KIT fusion gene transfected cells (Ba/F3) (P10721 26-976 limits assumed, change not shown): as above
[6] abbreviates: healthy human derived pulmonary arterial smooth muscle cells, human PDGF-BB 10 ng/mL stimulation, BrdU uptake after 1 day, test substance final concentration 3 to 10,000 nM.
Where [7] appears, read: PASMC, 24 h, healthy human derived pulmonary arterial smooth muscle cells, human PDGF-BB 10 ng/mL stimulation, BrdU uptake after 1 day, test substance final concentration 3 to 10,000 nM.

Sequence of TEL-PDGFRβ fusion gene transfected cells (Ba/F3) (Homo sapiens, UniProt P09619) (P09619 33-1106 limits assumed, change not shown): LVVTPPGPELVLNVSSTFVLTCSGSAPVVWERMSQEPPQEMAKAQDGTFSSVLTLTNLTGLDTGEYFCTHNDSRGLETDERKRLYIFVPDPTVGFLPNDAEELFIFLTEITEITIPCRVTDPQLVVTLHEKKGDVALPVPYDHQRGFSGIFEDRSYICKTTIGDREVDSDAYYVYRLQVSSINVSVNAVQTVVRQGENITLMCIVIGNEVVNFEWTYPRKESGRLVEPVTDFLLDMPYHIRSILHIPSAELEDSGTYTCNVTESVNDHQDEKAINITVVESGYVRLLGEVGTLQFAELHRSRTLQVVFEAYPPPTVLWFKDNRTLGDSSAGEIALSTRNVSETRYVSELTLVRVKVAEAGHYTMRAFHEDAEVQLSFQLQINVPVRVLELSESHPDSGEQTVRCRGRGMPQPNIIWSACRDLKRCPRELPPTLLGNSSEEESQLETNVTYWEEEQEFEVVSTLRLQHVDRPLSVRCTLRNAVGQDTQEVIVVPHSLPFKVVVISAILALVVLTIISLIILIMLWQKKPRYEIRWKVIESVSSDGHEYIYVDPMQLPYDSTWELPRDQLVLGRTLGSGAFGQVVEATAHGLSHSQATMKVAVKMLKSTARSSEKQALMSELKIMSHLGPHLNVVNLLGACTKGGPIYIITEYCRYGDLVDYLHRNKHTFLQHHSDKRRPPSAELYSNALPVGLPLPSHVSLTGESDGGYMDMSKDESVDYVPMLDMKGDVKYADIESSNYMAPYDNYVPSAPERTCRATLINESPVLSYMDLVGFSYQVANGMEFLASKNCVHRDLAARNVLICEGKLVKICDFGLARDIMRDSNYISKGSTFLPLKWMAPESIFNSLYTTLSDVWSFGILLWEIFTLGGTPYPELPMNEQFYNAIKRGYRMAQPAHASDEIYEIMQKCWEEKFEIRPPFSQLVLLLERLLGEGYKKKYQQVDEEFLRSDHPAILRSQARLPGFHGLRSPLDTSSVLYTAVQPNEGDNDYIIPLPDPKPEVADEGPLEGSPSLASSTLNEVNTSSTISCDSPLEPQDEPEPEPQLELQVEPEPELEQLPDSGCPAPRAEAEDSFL
Sequence of PDGFR-β (P09619 33-1106): as the sequence (P09619 33-1106 limits assumed, change not shown) above

`Cc1ccc(CNc2cncc(-c3ncccn3)c2)cc1NC(=O)N[C@@H]1CCCC[C@@H]1O` [Example 163, N-[(1R,2S)-2-hydroxycyclohexyl]-N′-[2-methyl-5-({[5-(pyrimidin-2-yl)pyridin-3-yl]amino}methyl)phenyl]urea]: the IC50 worked out at 2.6 µM in assay [1], 0.26 µM at PDGFR-β, 0.15 µM in assay [2] (setting [6]) and 0.2 µM in assay [3].

In the case of “3-{[([3,3′-bipyridin]-5-yl)methyl]amino}-N-[(1S,2S)-2-hydroxycyclohexyl]-4-methylbenzamide [Example 93]”, the IC50 in assay [1] came to 6.2 µM; on PDGFR-β, 0.36 µM; in assay [2] (setting [6]), 0.26 µM; in assay [4], 0.045 µM.

Take `Cc1ccc(C(=O)N[C@H]2CCCC[C@@H]2O)cc1C#Cc1cncc(-c2ccccc2)c1` [Example 60, N-[(1S,2S)-2-hydroxycyclohexyl]-4-methyl-3-[(5-phenylpyridin-3-yl)ethynyl]benzamide]: the IC50 was 0.41 µM in assay [1], 0.046 µM at PDGFR-β, 0.026 µM in assay [2] (setting [7]) and 0.0059 µM in assay [4].

In the case of `Cc1ccc(C(=O)N[C@H]2CCCC[C@@H]2O)cc1C#Cc1cncc(-c2ccccc2)n1` [Example 75, N-[(1S,2S)-2-hydroxycyclohexyl]-4-methyl-3-[(6-phenylpyrazin-2-yl)ethynyl]benzamide], the IC50 in assay [1] is 0.3 µM; at PDGFR-β it was 0.015 µM; in assay [2] (setting [7]), 0.013 µM; in assay [4], 0.0045 µM.

For `Cc1ccc(C(=O)N[C@H]2CCCC[C@@H]2O)cc1/C=C/c1cncc(-c2ccccc2)c1` [Example 173, N-[(1S,2S)-2-hydroxycyclohexyl]-4-methyl-3-[(E)-2-(5-phenylpyridin-3-yl)ethenyl]benzamide], the IC50 in assay [1] worked out at 0.7 µM; on PDGFR-β, 0.054 µM; in assay [4], 0.0046 µM.

Consider `O=C(Nc1cccc(CNc2cncc(-c3ncccn3)c2)c1)N[C@@H]1CCCC[C@@H]1O` [Example 159, N-[(1R,2S)-2-hydroxycyclohexyl]-N′-[3-({[5-(pyrimidin-2-yl)pyridin-3-yl]amino}methyl)phenyl]urea], for which the IC50 in assay [5] amounted to 0.38 µM; on PDGFR-β it was 0.026 µM; in assay [2] (setting [7]), 0.021 µM; in assay [3] it was 0.0017 µM.

Take `Cc1ccc(C(=O)N[C@H]2CCCC[C@@H]2O)cc1NC(=O)c1cncc(OC(C)C)c1` [Example 7, N-(5-{[(1S,2S)-2-hydroxycyclohexyl]carbamoyl}-2-methylphenyl)-5-[(propan-2-yl)oxy]pyridine-3-carboxamide]: the IC50 in assay [5] amounted to 1.9 µM; at PDGFR-β it was 0.17 µM; in assay [2] (PASMC, human PDGF-BB 10 ng/mL, BrdU uptake, final concentration 3 to 10,000 nM), 0.15 µM; in assay [3], 0.043 µM.
